According to patent US20240124504A1, “AROMATIC HETEROCYCLIC COMPOUND, AND PHARMACEUTICAL COMPOSITION AND APPLICATION THEREOF” (GT APEIRON THERAPEUTICS LIMITED, priority 2020, published 2024):
pIC50: −log10 of the molar value.

Legend:
[1] = target: T1, CDK12 (aa686-1082)/cyclinK complex (Homo sapiens, UniProt Q9NYV4); test: In-vitro enzymatic inhibitory activity testing, CDK12 inhibition assay (Caliper EZ Reader II); format: biochemical; settings: CDK12/cyclinK 50 nM, 180 min at 27° C.; read-out: CDK12 IC50
T1 construct: A CDK12 (aa686-1082)/cyclinK complex (50 nM)
How it was run: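 Caliper EZ Reader II mobility-shift separation of 5-FAM-CDK9tide substrate (2 μM) from phosphoproduct, using 50 nM CDK12 (aa686-1082)/cyclinK in 80 mM MES pH 6.5, 10 mM MgCl2, 0.01% Tween 20, 50 ug/mL BSA. Compound pre-incubated 10 min with enzyme, then substrate/ATP added for 180 min at 27° C; EDTA stop. IC50 by nonlinear dose-response regression.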

CDK9/cyclinT1 complex = CDK9/cyclinT1 complex (Homo sapiens, UniProt P50750); test: In-vitro enzymatic inhibitory activity testing, CDK9 inhibition assay (Caliper EZ Reader II); format: biochemical; settings: CDK9/cyclinT1 8 nM, 180 min at 27° C.
How it was run: (§1)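 Enzyme preincubated 10 min with compound, then peptide substrate plus ATP added in 80 mM MES pH 6.5, 10 mM MgCl2 buffer; 180 min at 27 °C, stopped with EDTA.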

[2] = test system: human breast cancer cells HCC70; test: Cell biological activity detection (CyQuant, 72 hours), HCC70; format: cell-based; settings: incubation for 72 hours
How it was run: (§2)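 A2780 and HCC70 cells seeded at 2000/well in RPMI 1640 + 10% FBS, treated next day with 9-point compound dilutions (top 10 μM, 1:4; 0.2% DMSO) for 72 h at 37 °C. Cell number read by CyQuant Direct nucleic acid stain (ex 488 nm); IC50 from dose–response fit.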

CDK2/cyclinE1 complex = CDK2/cyclinE1 complex (Homo sapiens, UniProt P24941); test: In-vitro enzymatic inhibitory activity testing, CDK2 inhibition assay (Caliper EZ Reader II); format: biochemical; settings: CDK2/cyclinE1 0.5 nM, 180 min at 27° C.
How it was run: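 CDK2/cyclinE1 (0.5 nM) phosphorylated 5-FAM-CDK7tide (2 μM) in MES buffer pH 6.5 with MgCl2, Tween 20 and BSA. Substrate and product were separated electrophoretically on a Caliper EZ Reader II. IC50 values came from nonlinear dose-response fits.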

ovarian cancer A2780 = test: Cell biological activity detection (CyQuant, 72 hours), A2780; format: cell-based, human; settings: A2780 cells, incubation for 72 hours
How it was run: as §2

[3] = target: CDK7/cyclinH/MAT1 complex (Homo sapiens, UniProt P50613); test: In-vitro enzymatic inhibitory activity testing, CDK7 inhibition assay (Caliper EZ Reader II); format: biochemical; settings: CDK7/cyclinH/MAT1 6 nM, 180 min at 27° C.
How it was run: as §1

T1 sequence (Q9NYV4 686-1082, species assumed): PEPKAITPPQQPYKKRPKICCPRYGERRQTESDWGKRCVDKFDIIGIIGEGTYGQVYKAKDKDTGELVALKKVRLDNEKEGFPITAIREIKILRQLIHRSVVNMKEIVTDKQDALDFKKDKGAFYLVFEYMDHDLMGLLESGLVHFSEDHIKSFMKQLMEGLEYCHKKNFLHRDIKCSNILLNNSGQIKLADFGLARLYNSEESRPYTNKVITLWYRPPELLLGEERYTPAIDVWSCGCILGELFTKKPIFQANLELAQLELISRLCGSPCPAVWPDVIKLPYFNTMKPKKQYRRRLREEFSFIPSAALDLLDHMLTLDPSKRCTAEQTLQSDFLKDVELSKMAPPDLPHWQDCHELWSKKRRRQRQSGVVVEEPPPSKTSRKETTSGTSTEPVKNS
T1 sequence (O75909 whole entry partner, species assumed, the tested form may be a part): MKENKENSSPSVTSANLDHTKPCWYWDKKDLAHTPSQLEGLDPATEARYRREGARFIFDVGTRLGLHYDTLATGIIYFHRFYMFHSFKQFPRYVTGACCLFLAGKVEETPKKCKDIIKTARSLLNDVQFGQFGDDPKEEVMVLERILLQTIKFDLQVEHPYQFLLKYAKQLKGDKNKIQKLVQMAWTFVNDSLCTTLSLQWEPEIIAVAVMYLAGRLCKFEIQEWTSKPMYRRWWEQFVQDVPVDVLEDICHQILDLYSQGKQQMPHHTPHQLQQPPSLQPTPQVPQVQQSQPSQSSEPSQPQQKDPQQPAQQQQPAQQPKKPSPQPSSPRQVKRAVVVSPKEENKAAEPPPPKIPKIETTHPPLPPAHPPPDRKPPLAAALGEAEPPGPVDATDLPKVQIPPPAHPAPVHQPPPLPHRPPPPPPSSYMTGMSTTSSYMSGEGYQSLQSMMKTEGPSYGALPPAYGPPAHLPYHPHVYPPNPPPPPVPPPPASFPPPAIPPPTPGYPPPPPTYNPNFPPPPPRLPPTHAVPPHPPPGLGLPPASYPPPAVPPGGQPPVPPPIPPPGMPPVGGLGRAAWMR
Sequence of CDK7/cyclinH/MAT1 complex (P50613 whole entry, species assumed): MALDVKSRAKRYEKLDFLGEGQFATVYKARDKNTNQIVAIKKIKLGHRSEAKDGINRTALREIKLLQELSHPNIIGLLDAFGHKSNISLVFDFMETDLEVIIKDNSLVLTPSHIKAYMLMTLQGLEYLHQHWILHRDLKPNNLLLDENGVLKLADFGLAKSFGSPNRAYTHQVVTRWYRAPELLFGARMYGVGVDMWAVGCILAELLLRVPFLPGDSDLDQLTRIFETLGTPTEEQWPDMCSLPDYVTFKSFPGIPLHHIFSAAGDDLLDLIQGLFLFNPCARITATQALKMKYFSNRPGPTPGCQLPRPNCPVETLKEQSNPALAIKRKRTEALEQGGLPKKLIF
Sequence of CDK7/cyclinH/MAT1 complex (P51946 whole entry partner, species assumed): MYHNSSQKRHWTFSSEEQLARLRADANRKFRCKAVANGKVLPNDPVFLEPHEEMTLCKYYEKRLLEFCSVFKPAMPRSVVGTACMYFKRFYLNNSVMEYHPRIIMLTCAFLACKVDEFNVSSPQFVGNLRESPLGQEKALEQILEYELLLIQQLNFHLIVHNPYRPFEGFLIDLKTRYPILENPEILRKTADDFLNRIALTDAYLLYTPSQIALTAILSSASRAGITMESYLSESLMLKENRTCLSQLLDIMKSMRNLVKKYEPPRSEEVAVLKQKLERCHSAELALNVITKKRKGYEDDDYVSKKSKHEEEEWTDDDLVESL
Sequence of CDK7/cyclinH/MAT1 complex (P51948 whole entry partner, species assumed): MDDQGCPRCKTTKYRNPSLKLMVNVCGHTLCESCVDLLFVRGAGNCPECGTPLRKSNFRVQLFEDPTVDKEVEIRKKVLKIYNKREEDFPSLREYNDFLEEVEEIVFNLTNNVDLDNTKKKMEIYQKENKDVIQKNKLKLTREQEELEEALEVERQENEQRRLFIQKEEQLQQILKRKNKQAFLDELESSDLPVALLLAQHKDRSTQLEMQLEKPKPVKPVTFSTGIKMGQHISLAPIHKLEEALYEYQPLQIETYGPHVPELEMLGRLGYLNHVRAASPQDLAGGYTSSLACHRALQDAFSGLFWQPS
Sequence of CDK9/cyclinT1 complex (P50750 whole entry, species assumed): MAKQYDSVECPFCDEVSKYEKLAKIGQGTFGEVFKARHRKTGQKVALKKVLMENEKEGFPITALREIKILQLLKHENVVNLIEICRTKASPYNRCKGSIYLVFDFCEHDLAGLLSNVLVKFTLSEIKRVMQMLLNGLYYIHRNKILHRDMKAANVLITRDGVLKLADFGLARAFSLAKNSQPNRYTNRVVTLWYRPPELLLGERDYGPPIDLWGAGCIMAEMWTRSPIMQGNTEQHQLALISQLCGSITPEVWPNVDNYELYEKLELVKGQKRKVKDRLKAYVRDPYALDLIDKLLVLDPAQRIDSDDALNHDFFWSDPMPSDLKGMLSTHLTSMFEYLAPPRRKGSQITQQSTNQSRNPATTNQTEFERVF
Sequence of CDK9/cyclinT1 complex (O60563 whole entry partner, species assumed): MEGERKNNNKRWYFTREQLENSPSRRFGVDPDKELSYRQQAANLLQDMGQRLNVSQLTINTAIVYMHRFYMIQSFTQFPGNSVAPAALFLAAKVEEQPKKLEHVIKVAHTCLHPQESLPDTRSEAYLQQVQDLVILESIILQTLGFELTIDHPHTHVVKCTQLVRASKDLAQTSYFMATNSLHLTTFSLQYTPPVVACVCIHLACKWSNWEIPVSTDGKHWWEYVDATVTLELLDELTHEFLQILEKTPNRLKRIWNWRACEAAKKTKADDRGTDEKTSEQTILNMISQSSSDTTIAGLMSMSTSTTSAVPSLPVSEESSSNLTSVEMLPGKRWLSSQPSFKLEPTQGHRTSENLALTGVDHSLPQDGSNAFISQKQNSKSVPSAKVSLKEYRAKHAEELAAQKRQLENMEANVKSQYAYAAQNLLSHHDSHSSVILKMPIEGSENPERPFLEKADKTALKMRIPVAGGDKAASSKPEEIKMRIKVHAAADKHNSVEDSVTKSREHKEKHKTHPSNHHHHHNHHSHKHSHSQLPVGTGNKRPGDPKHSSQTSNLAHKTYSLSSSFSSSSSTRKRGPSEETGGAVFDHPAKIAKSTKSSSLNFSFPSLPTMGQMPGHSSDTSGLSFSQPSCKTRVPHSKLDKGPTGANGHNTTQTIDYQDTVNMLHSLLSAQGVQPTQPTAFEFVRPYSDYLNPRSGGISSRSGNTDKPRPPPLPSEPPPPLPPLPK

Row | Compound | pIC50 [1] | pIC50 (CDK9/cyclinT1 complex) | pIC50 (CDK2/cyclinE1 complex) | pIC50 (ovarian cancer A2780; Homo sapiens, A2780, 72 h) | pIC50 [3] | pIC50 (ovarian cancer A2780) | pIC50 ([2]; Homo sapiens, HCC70, 72 h) | pIC50 [2]
1 | CP(C)(=O)c1cccc2c(-c3nc(NCC4(CO)CC4)ncc3C(F)(F)F)c[nH]c12 [Compound 160] | < 4.30 | < 4.30 | 4.30 to 5.30 | 5.30 to 6.70 | 6.70 to 7.70 |  | 5.30 to 6.70 | 
2 | CP(C)(=O)c1cccc2c(-c3nc(NCC(O)C(F)F)ncc3C(F)(F)F)c[nH]c12 (single isomer, unassigned) [Compound 124] | < 4.30 | < 4.30 | 4.30 to 5.30 |  | > 7.70 | 6.70 to 7.70 | 6.70 to 7.70 | 
3 | CC1(C)COCC(Nc2ncc(C(F)(F)F)c(-c3c[nH]c4nc(C#N)ccc34)n2)CN1 (single isomer, unassigned) [Compound 63] | 4.30 to 5.30 | < 4.30 | < 4.30 | 5.30 to 6.70 | 6.70 to 7.70 |  | 5.30 to 6.70 | 
4 | CP(C)(=O)c1cccc2c(-c3nc(NC4CC45CCNC5)ncc3C(F)(F)F)c[nH]c12 (single isomer, unassigned) [Compound 110] | 4.30 to 5.30 | < 4.30 | 4.30 to 5.30 |  | > 7.70 | > 7.70 |  | 6.70 to 7.70
5 | CC1(C)COCC(Nc2ncc(C(F)(F)F)c(-c3c[nH]c4nc(C#N)ccc34)n2)CN1 (stereo not drawn) [Compound 62, 3-(2-((3,3-dimethyl-1,4-oxazepan-6-yl)amino)-5-(trifluoromethyl)pyrimidin-4-yl)-1H-pyrrolo[2,3-b]pyridine-6-carbonitrile] | 4.30 to 5.30 | < 4.30 | < 4.30 | 5.30 to 6.70 | 6.70 to 7.70 |  | 5.30 to 6.70 | 
6 | CP(C)(=O)c1cccc2c(-c3nc(NC4CCC5(CCNC5)C4)ncc3C(F)(F)F)c[nH]c12 (single isomer, unassigned) [Compound 100] | 5.30 to 6.70 | 4.30 to 5.30 | 5.30 to 6.70 |  | > 7.70 | > 7.70 |  | > 7.70
7 | CP(C)(=O)c1cccc2c(-c3nc(NCC(O)C(F)(F)F)ncc3C(F)(F)F)c[nH]c12 (single isomer, unassigned) [Compound 146] | < 4.30 | < 4.30 | 4.30 to 5.30 | 6.70 to 7.70 | > 7.70 |  |  | 6.70 to 7.70
8 | FC(F)(F)c1cnc(NC2CCCNCC2)nc1-c1c[nH]c2nc(N3CCOCC3)ccc12 (single isomer, unassigned) [Compound 48] | 5.30 to 6.70 | 4.30 to 5.30 | 5.30 to 6.70 | 5.30 to 6.70 | 6.70 to 7.70 |  | 5.30 to 6.70 | 
9 | CP(C)(=O)c1cccc2c(-c3nc(NC4CC45CCNC5)ncc3C(F)(F)F)c[nH]c12 (single isomer, unassigned) [Compound 111] | < 4.30 | < 4.30 | 4.30 to 5.30 |  | 6.70 to 7.70 | > 7.70 |  | 6.70 to 7.70
10 | CC(C)(O)CNc1ncc(C(F)(F)F)c(-c2c[nH]c3c(P(C)(C)=O)cccc23)n1 [Compound 95, (3-(2-((2-hydroxy-2-methylpropyl)amino)-5-(trifluoromethyl)pyrimidin-4-yl)-1H-indole-7-yl)dimethylphosphine oxide] | < 4.30 | < 4.30 | 4.30 to 5.30 | 6.70 to 7.70 | > 7.70 |  | 6.70 to 7.70 | 
11 | FC(F)(F)c1cnc(NC2CCC23CNC3)nc1-c1c[nH]c2nc(N3CCOCC3)ccc12 (stereo not drawn) [Compound 39, N-(4-(6-morpholinyl-1H-pyrrolo[2,3-b]pyridin-3-yl)-5-(trifluoromethyl)pyrimidin-2-yl)-2-azaspiro[3.3]heptan-5-amine] | 4.30 to 5.30 | 4.30 to 5.30 | 4.30 to 5.30 | 6.70 to 7.70 | > 7.70 |  | 6.70 to 7.70 | 
12 | CC[C@](C)(CO)Nc1ncc(C(F)(F)F)c(-c2c[nH]c3c(P(C)(C)=O)cccc23)n1 [Compound 161, (R)-(3-(2-((1-hydroxy-2-methylbutan-2-yl)amino)-5-(trifluoromethyl)pyrimidin-4-yl)-1H-indole-7-yl)dimethylphosphine oxide] | < 4.30 | < 4.30 | 4.30 to 5.30 | 5.30 to 6.70 | > 7.70 |  | 5.30 to 6.70 | 

Further lines, with some results ahead:

Row | pIC50 [1] | pIC50 (CDK9/cyclinT1 complex) | pIC50 (CDK2/cyclinE1 complex) | pIC50 (ovarian cancer A2780; Homo sapiens, A2780, 72 h) | pIC50 [3] | pIC50 (ovarian cancer A2780) | Compound | pIC50 ([2]; Homo sapiens, HCC70, 72 h) | pIC50 [2]
13 | 5.30 to 6.70 | 5.30 to 6.70 | 4.30 to 5.30 | 6.70 to 7.70 | 6.70 to 7.70 |  | FC(F)(F)c1cnc(N[C@H]2CCCNC2)nc1-c1c[nH]c2cc(N3CCCC3)ccc12 [Compound 101, (S)—N-(piperidin-3-yl)-4-(6-(pyrrolidin-1-yl)-1H-indole-3-yl)-5-(trifluoromethyl)pyrimidin-2-amine, reference compound] | 5.30 to 6.70 | 
14 | < 4.30 | < 4.30 | 4.30 to 5.30 | 6.70 to 7.70 | 6.70 to 7.70 |  | CC(C)C(O)CNc1ncc(C(F)(F)F)c(-c2c[nH]c3c(P(C)(C)=O)cccc23)n1 (stereo not drawn) [Compound 162, (3-(2-((2-hydroxy-3-methylbutyl)amino)-5-(trifluoromethyl)pyrimidin-4-yl)-1H-indole-7-yl)dimethylphosphine oxide] | 5.30 to 6.70 | 
15 | 5.30 to 6.70 | 4.30 to 5.30 | 5.30 to 6.70 | > 7.70 | > 7.70 |  | CP(C)(=O)c1cccc2c(-c3nc(N[C@@H]4CC[C@@]5(CCNC5)C4)ncc3C(F)(F)F)c[nH]c12 [Compound 99, (3-(2-(((5R,7R)-2-azaspiro[4.4]non-7-yl)amino)-5-(trifluoromethyl)pyrimidin-4-yl)-1H-indole-7-yl)dimethylphosphine oxide] | > 7.70 | 
16 | 4.30 to 5.30 | 4.30 to 5.30 | 4.30 to 5.30 | 6.70 to 7.70 | 6.70 to 7.70 |  | FC(F)(F)c1cnc(NC2CCC3(CCNC3)C2)nc1-c1c[nH]c2nc(N3CCOCC3)ccc12 (stereo not drawn) [Compound 40, N-(4-(6-morpholinyl-1H-pyrrolo[2,3-b]pyridin-3-yl)-5-(trifluoromethyl)pyrimidin-2-yl)-2-azaspiro[4.4]non-7-amine] | 5.30 to 6.70 | 
17 | 4.30 to 5.30 | 4.30 to 5.30 | 4.30 to 5.30 | 5.30 to 6.70 | 5.30 to 6.70 |  | FC(F)(F)c1cnc(NC2C3CNCC32)nc1-c1c[nH]c2nc(N3CCOCC3)ccc12 (stereo not drawn) [Compound 46, N-(4-(6-morpholinyl-1H-pyrrolo[2,3-b]pyridin-3-yl)-5-(trifluoromethyl)pyrimidin-2-yl)-3-azabicyclo[3.1.0]n-hexan-6-amine] | 5.30 to 6.70 | 
18 | < 4.30 | < 4.30 | < 4.30 | 5.30 to 6.70 | 6.70 to 7.70 |  | CP(C)(=O)c1cccc2c(-c3nc(N[C@@H]4COCC[C@H]4O)ncc3C(F)(F)F)c[nH]c12 [Compound 167] | 5.30 to 6.70 | 
19 | 4.30 to 5.30 | < 4.30 | 5.30 to 6.70 | 6.70 to 7.70 | 6.70 to 7.70 |  | C[C@@H](CO)Nc1ncc(C(F)(F)F)c(-c2c[nH]c3nc(C4=CCOCC4)ccc23)n1 [Compound 181, (S)-2-((4-(6-(3,6-dihydro-2H-pyran-4-yl)-1H-pyrrolo[2,3-b]pyridin-3-yl)-5-(trifluoromethyl)pyrimidin-2-yl)amino)propan-1-ol] | 5.30 to 6.70 | 
